In ChEMBL document CHEMBL5465560, “Selectivity Literature for EUbOPEN Chemogenomic Library” (2024):
pIC50: −log10 of the molar value.

Legend:
[1] = molecular target: Fibroblast growth factor receptor 3 (Homo sapiens, UniProt P22607); experiment: Selectivity interaction (Kinase panel (33PanQinase(R) Activity Assay)) EUB0000877a FGFR3
[2] = molecular target: Serine/threonine-protein kinase mTOR (Homo sapiens, UniProt P42345); experiment: Selectivity interaction (Kinase panel (antibody-dependent TR-FRET assay, phosphorylation of 4EBP-1 catalyzed by recombinant mTOR)) EUB0000877a MTOR
[3] = molecular target: T1, Tyrosine-protein kinase receptor TYRO3 (Homo sapiens) (UniProt Q06418); experiment: Selectivity interaction (KinomeScan (DiscoverX)) EUB0000595a TYRO3; conditions: at 10 µM
T1 sequence (whole entry): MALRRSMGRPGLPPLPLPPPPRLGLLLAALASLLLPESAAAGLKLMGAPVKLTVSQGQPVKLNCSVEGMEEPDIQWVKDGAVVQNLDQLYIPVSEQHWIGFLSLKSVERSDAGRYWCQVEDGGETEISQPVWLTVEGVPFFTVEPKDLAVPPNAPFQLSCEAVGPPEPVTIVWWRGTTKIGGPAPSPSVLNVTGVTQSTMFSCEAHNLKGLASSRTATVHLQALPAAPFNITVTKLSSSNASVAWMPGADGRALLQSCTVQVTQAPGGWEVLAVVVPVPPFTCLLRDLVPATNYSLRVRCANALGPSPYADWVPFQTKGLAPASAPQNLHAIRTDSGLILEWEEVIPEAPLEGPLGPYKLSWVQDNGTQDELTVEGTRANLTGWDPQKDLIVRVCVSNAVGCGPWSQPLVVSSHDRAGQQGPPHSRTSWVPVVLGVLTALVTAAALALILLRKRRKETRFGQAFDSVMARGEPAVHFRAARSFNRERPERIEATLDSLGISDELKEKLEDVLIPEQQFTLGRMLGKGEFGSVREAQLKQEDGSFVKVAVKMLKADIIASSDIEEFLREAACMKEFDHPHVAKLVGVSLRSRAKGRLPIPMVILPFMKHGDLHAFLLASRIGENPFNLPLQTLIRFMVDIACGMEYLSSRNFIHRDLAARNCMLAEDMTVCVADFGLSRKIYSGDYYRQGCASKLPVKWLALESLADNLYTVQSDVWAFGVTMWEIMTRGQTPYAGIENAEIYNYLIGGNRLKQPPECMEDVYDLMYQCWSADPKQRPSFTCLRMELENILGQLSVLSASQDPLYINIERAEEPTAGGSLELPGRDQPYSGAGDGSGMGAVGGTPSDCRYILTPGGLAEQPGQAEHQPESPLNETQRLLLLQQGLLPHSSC

[4] = molecular target: Serine/threonine-protein kinase 25 (Homo sapiens) (UniProt O00506); experiment: Selectivity interaction (KinomeScan (DiscoverX)) EUB0000092b STK25; conditions: at 10 µM
[5] = molecular target: Tyrosine-protein kinase Yes (Homo sapiens) (UniProt P07947); experiment: Selectivity interaction (Ambit KINOMEscan and KiNATiv profiling in Jurkat cells) EUB0000090b YES1; format: cell-based; conditions: at 1 µM
[6] = molecular target: Wee1-like protein kinase (Homo sapiens) (UniProt P30291); experiment: Selectivity interaction (KinomeScan (DiscoverX)) EUB0000618a WEE1; conditions: at 10 µM
[7] = test system: Proto-oncogene tyrosine-protein kinase receptor Ret (Homo sapiens), P07949 [V804M]; experiment: (§1) Selectivity interaction (KinomeScan (DiscoverX)) EUB0000618a RET; conditions: at 10 µM
[8] = test system: Proto-oncogene tyrosine-protein kinase receptor Ret (Homo sapiens), P07949 [V804L]; experiment: as §1; conditions: at 10 µM
[9] = molecular target: Proto-oncogene tyrosine-protein kinase receptor Ret (Homo sapiens, UniProt P07949); experiment: as §1; conditions: at 10 µM
[10] = molecular target: T2, Phosphatidylinositol 3-kinase C2 domain-containing subunit gamma (Homo sapiens) (UniProt O75747); experiment: Selectivity interaction (KinomeScan (DiscoverX)) EUB0000695a PIK3C2G; conditions: at 100 nM
T2 sequence (whole entry): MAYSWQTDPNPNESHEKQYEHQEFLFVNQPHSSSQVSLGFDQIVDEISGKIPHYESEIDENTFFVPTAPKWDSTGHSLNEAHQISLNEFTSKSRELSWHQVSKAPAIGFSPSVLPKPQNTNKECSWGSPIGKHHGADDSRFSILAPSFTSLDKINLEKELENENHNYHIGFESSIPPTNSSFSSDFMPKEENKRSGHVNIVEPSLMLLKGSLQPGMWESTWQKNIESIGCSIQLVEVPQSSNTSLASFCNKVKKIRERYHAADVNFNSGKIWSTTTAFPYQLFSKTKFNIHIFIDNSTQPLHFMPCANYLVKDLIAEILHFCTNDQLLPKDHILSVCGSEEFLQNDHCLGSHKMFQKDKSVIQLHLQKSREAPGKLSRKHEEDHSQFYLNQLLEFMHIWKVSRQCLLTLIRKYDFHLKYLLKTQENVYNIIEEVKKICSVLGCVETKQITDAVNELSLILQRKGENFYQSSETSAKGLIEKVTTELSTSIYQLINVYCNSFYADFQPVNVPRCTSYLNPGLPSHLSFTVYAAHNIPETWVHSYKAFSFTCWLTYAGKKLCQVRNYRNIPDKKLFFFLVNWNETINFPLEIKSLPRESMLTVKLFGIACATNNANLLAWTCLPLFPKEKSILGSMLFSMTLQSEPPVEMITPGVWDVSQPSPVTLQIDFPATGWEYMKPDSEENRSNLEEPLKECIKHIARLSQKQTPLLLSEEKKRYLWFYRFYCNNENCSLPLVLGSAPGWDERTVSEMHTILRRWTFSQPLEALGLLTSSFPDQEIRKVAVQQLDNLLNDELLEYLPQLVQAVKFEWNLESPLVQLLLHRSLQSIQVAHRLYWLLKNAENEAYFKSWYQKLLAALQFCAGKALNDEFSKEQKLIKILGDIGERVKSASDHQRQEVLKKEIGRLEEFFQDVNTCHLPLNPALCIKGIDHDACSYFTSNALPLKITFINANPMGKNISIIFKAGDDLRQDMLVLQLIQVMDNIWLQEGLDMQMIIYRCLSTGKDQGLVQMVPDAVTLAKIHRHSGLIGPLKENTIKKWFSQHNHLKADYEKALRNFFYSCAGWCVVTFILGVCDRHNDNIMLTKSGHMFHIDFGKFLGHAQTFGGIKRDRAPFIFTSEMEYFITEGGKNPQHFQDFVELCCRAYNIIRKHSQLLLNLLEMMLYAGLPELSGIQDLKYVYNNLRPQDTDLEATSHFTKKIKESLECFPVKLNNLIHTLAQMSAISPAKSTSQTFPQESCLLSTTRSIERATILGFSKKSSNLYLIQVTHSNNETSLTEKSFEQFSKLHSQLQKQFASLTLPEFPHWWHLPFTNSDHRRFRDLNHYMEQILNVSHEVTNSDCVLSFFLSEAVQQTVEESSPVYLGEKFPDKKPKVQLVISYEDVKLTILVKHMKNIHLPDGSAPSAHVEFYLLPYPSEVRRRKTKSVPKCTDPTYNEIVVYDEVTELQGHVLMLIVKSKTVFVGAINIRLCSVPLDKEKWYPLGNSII

[11] = molecular target: Proto-oncogene tyrosine-protein kinase Src (Homo sapiens, UniProt P12931); experiment: Selectivity interaction (Kinase panel (Z-LYTE Assay)) EUB0001632a SRC; conditions: at 10 µM
Chain of Proto-oncogene tyrosine-protein kinase Src (P12931 2-536 limits assumed): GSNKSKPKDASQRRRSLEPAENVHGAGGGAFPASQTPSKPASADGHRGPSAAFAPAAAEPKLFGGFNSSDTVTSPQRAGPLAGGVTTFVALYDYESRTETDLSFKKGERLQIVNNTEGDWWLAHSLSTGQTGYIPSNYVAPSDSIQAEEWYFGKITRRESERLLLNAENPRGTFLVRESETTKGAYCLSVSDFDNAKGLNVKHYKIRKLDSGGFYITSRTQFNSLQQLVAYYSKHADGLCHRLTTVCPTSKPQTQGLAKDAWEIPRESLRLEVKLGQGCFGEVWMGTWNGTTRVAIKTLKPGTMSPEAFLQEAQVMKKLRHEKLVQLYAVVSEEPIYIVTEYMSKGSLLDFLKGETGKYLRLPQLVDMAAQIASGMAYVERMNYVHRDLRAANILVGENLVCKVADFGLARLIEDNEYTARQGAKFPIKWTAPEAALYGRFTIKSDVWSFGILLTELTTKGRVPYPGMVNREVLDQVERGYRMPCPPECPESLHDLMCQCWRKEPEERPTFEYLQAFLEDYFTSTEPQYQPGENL

Chain of Wee1-like protein kinase (Homo sapiens) (P30291 whole entry, looked up): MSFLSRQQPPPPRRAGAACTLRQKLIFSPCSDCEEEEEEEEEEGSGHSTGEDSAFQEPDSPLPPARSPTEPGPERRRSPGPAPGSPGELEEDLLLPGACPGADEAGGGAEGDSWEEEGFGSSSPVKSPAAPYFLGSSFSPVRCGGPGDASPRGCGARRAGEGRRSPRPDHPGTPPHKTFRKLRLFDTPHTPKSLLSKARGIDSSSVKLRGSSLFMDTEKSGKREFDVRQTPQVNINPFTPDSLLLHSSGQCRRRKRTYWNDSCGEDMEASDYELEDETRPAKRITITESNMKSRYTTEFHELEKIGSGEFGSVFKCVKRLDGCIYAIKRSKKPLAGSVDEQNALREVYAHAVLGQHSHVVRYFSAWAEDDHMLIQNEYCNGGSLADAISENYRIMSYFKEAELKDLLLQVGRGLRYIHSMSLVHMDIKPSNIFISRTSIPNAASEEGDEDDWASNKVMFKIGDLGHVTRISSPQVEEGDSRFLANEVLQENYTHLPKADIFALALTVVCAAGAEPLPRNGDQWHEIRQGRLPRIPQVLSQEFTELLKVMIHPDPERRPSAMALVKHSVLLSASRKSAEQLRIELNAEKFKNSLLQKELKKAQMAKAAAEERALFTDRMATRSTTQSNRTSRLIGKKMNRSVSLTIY
Chain of Serine/threonine-protein kinase 25 (Homo sapiens) (O00506 whole entry, looked up): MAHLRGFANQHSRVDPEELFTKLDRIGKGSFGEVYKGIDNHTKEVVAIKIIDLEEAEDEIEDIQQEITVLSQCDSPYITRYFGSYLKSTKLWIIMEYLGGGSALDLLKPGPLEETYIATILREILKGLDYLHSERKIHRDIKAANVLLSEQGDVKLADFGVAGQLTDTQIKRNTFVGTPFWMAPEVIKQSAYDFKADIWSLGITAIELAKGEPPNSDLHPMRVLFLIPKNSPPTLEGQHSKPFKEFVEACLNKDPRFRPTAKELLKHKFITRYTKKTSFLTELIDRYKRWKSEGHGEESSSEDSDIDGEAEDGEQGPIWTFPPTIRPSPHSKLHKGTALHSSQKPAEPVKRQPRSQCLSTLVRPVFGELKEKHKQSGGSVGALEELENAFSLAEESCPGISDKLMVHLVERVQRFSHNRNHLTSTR
Chain of Proto-oncogene tyrosine-protein kinase receptor Ret (P07949 whole entry, the tested form may be a part): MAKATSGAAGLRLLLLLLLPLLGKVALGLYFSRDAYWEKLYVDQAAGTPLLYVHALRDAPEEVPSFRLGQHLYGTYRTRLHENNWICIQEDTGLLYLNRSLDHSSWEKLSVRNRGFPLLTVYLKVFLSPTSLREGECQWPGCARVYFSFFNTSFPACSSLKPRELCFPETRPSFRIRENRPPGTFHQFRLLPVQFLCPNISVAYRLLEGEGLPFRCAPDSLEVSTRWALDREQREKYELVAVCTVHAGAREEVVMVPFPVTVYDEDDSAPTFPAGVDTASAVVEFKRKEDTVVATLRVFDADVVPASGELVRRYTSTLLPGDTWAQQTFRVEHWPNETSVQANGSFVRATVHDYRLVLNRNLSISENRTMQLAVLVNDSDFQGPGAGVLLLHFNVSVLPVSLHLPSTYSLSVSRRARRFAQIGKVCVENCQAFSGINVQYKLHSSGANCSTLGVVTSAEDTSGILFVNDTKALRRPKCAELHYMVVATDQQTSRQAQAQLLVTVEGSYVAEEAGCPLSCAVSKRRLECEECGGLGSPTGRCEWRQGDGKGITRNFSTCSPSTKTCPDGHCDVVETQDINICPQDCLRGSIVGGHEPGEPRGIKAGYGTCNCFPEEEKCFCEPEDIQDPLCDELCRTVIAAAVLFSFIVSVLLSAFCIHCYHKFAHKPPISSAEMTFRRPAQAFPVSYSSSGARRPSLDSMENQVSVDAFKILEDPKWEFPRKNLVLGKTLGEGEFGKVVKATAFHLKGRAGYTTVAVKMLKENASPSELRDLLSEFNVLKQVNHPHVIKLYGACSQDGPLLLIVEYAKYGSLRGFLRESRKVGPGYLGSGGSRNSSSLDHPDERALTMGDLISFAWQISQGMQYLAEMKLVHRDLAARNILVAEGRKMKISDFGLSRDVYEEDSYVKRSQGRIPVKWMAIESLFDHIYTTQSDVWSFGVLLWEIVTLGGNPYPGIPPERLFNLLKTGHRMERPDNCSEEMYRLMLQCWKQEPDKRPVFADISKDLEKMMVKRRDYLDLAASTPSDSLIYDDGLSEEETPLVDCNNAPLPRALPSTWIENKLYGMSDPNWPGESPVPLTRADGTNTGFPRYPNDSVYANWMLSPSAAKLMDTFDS
Chain of Tyrosine-protein kinase Yes (Homo sapiens) (P07947 2-543 limits assumed): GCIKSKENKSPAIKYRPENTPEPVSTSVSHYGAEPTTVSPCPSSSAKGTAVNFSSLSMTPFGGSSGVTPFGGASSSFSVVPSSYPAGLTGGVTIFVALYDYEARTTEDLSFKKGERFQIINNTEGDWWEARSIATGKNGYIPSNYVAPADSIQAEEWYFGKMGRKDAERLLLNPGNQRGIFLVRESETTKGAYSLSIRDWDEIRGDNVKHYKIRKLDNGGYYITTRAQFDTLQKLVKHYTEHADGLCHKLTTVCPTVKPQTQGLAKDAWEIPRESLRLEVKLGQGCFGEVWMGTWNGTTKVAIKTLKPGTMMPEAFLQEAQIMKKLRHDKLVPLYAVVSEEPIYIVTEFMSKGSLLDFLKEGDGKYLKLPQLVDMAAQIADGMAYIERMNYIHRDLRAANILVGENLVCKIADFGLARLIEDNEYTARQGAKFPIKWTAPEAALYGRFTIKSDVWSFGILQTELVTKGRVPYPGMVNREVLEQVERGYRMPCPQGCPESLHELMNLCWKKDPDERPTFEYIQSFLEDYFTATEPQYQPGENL
Chain of Fibroblast growth factor receptor 3 (P22607 whole entry): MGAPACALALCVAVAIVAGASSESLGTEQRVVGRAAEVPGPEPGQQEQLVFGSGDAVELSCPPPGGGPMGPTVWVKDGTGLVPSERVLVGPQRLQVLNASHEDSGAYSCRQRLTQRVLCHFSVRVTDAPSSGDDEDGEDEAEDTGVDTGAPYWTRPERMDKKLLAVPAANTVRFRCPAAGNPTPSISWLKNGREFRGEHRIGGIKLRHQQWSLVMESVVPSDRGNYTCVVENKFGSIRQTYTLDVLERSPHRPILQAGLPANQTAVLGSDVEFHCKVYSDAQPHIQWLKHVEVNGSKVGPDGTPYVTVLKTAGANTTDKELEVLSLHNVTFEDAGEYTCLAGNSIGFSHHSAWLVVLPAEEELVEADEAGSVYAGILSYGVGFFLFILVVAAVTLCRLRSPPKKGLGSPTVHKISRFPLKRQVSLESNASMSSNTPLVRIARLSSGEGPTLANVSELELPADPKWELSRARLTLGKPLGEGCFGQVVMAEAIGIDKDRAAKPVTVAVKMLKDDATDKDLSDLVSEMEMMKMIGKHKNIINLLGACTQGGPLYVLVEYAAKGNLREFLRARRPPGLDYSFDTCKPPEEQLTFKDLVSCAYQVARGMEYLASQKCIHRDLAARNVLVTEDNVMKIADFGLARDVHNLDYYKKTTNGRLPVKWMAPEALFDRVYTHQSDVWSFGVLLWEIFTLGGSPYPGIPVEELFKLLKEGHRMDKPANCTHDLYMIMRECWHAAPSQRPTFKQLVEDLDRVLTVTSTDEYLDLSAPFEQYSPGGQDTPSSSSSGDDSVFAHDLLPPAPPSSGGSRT
Chain of Proto-oncogene tyrosine-protein kinase receptor Ret (Homo sapiens), P07949 [V804L] (P07949 whole entry V804L): as the sequence (P07949 whole entry, the tested form may be a part) above, with V804L counted along it
Chain of Proto-oncogene tyrosine-protein kinase receptor Ret (Homo sapiens), P07949 [V804M] (P07949 whole entry V804M): as the sequence (P07949 whole entry, the tested form may be a part) above, with V804M counted along it

CCC(=O)N1CC[C@H](Nc2ncnc3c2CN(c2cnc(OC)c(C(F)(F)F)c2)CC3)C1 [LENIOLISIB]
pIC50 [1]: < 5.00 | pIC50 [2]: < 5.04

COCC(=O)NC/C=C/c1ccc2ncnc(Nc3ccc(Oc4ccc(C)nc4)c(C)c3)c2c1 [CP-724714]
% of control [3]: 80%

CCC(=O)N1CCN(c2ccc(-n3c(=O)ccc4cnc5ccc(-c6cnc7ccccc7c6)cc5c43)cc2C(F)(F)F)CC1
% of control [4]: 84%

CN(C)C/C=C/C(=O)Nc1ccc(C(=O)N2CCCC(Nc3ncc(Cl)c(-c4c[nH]c5ccccc45)n3)C2)cc1 (stereo unspecified)
% of control [5]: 94%

O[C@H]1CC[C@H](Nc2ncc3nc(Nc4c(F)cc(F)cc4F)n([C@H]4CCOC4)c3n2)CC1
% of control [6]: 100% | % of control [7]: 96% | % of control [8]: 100% | % of control [9]: 100%

Cc1cc(F)c(C(=O)Nc2cccc(-c3nncn3C(C)C)n2)cc1-n1cnc(C2CC2)c1
% of control [10]: 87%

Cn1cc(-n2cnc3c(NCc4nc5cc(Cl)c(Cl)cc5[nH]4)nc(N4CCOCC4)nc32)cn1
% of control [11]: 12.1%
